# Measurements reported in patent US11878063B2, “Engineered ligands and uses thereof” (Children's Medical Center Corporation, priority 2019, dated 2024).
# “Also recorded” adds a separate entry of the source. Square brackets hold non-standard residues; d marks the D form. Peptide text beside a SMILES is read from it. Aib = CC(C)(N)C(=O)O
# T1: rat PTHR1 (Rattus norvegicus, UniProt P25961)
# T1 construct: expressed in transfected cells
# T1 sequence (P25961 27-591): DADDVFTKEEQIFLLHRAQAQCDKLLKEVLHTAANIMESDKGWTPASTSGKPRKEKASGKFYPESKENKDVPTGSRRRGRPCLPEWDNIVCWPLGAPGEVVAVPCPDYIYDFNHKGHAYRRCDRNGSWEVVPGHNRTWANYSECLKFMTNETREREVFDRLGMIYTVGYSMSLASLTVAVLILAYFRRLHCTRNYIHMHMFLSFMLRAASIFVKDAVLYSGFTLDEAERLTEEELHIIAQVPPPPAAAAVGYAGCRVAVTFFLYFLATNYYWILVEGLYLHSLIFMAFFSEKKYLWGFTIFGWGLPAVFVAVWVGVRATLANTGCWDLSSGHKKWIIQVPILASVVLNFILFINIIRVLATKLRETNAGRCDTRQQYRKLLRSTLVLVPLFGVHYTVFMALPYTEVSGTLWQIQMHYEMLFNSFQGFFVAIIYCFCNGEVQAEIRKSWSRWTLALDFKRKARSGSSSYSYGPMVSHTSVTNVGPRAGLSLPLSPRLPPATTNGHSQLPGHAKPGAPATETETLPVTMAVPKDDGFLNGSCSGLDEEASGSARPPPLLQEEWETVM
# T2: human PTHR1 (Homo sapiens, UniProt Q03431)
# T2 construct: expressed in transfected cells
# T2 sequence (Q03431 27-593): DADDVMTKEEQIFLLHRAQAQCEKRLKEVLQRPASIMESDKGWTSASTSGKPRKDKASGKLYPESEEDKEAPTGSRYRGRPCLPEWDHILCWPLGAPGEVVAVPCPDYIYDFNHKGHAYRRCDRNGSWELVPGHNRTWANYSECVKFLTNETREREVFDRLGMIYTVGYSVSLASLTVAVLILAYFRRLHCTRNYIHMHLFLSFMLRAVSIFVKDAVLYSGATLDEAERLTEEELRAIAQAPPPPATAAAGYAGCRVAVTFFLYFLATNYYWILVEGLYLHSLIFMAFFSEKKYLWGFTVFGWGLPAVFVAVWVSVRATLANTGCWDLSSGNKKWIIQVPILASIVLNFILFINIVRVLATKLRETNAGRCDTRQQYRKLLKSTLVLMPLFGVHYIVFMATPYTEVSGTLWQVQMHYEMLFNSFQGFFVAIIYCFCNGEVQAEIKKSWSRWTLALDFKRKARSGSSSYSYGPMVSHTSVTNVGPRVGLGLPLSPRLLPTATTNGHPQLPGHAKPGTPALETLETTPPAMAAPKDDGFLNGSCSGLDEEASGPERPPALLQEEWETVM
# T3: PTHR16E (Homo sapiens, UniProt Q03431, A83I/D81R/G76A/K80A/K82Q/P78E/R79L/S71Q/S73D/S75E/T74Q)
# T3 construct: expressed in transfected cells
# T3 sequence (Q03431 27-593 S71Q/S73D/T74Q/S75E/G76A/P78E/R79L/K80A/D81R/K82Q/A83I): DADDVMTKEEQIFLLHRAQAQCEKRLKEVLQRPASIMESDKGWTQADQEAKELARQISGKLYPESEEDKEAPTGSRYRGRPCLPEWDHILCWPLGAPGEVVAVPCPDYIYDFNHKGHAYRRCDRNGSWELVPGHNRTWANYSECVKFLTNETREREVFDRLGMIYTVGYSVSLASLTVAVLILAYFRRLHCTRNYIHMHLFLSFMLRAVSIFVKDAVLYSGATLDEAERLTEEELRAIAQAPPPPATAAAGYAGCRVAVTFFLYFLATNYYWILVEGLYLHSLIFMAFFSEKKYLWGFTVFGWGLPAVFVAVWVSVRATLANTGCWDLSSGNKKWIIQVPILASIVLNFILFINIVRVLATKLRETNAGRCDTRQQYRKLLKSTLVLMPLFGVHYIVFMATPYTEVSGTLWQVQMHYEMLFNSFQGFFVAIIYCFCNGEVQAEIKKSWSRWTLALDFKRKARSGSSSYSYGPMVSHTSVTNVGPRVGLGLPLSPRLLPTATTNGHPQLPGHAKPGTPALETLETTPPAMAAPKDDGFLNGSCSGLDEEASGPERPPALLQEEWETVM
# B1: VHHPTHR: nanobody that recognizes the PTHR1 extracellular domain, SEQ ID NO: 74, from US 2010/0062004 (protein)
# VHH: EVQLVESGGGLVQAGGSLRLSCAASGNIFANNIMGWYRQPPGKEREFVAHVSHDGDSMYAVSVKGRFAISRKDATNLYLQMNSLKPEDTAIYFCRLLNIPTQGRMEGFWGQGTQVTVSS
# Assays:
# [1] = molecular target: T1, rat PTHR1; experiment: cAMP induction in HEK293 cells stably expressing rat PTHR1; assay type: cell-based
# Experimental: (§1) Measurement of cAMP response. These assays were performed as previously described^27. […] Confluent monolayers of cells were pre-incubated with CO2 independent medium containing D-luciferin (0.5 mM) at 37° C. until a stable baseline level of luminescence was established (20 min). Varying concentrations of ligands were then added, and the time course of luminescence response was recorded using BioTek plate reader.
# (§2) Data calculations. Data were processed using Microsoft Excel and GraphPad Prism 6. Data from cAMP dose-response assays were analyzed using a sigmoidal dose-response model with variable slope. Data sets were statistically compared by using Student's t test (two-tailed) assuming unequal variances for the two sets.
# [2] = molecular target: T4, PTHR2 (Homo sapiens, UniProt P49190); experiment: cAMP induction in HEK293 cells stably expressing human PTHR2; assay type: cell-based; details: at 100 uM
# T4 construct: expressed in transfected cells
# T4 sequence (P49190 25-550): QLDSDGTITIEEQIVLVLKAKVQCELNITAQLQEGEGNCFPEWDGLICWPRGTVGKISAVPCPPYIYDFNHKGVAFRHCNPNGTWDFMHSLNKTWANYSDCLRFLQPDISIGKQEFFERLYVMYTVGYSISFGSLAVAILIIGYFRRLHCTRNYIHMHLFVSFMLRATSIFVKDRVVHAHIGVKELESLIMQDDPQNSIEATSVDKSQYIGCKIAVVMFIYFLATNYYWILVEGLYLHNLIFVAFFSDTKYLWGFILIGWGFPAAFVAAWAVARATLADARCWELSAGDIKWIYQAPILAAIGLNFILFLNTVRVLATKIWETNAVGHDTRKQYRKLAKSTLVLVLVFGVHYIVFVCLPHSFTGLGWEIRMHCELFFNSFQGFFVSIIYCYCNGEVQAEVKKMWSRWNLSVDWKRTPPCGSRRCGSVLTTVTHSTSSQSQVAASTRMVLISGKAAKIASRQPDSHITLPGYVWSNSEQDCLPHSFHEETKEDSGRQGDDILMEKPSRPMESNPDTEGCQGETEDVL
# Experimental: as §1, §2
# [3] = molecular target: T2, human PTHR1; experiment: cAMP induction (cAMP-responsive luciferase) in HEK293 cells stably expressing human PTHR1; assay type: cell-based
# Experimental: as §1, §2
# [4] = molecular target: T3, PTHR16E; experiment: cAMP induction in HEK293 cells stably expressing PTHR16E (6E/Ubc6e epitope tag in exon 2 segment); assay type: cell-based
# Experimental: Measurement of cAMP response. These assays were performed as previously described^27. Briefly, HEK-293-derived cell lines that stably express the Glosensor cAMP reporter (Promega Corp.)^30 and PTHR1, a PTHR1 variant, or PTHR2 were seeded into white sided 96 well plates (50,000 cells/well) and grown to confluency. Confluent monolayers of cells were pre-incubated with CO2 independent medium containing D-luciferin (0.5 mM) at 37° C. until a stable baseline level of luminescence was established (20 min). Varying concentrations of ligands were then added, and the time course of luminescence response was recorded using BioTek plate reader.
# as §2
# The portion of PTHR1 encoded by exon 2 is not resolved in structural studies (FIG. 12—Panel d)^13, 14, 17, is not important for ligand binding^18, and in past work has been targeted as a site for receptor modification^18, 19. A construct was generated that encodes a PTHR1 variant in which a 14-residue fragment from exon 2 was replaced with a 14-mer epitope tag from the intracellular protein UBC6e (PTHR16E, FIG. 12—Panel d)^20. A receptor construct in which a pH-sensitive green fluorescent protein variant (GFP) was inserted into the portion of the receptor encoded by exon 2 (PTHR1GFP in FIGS. 17A to 17C)^19. Another version of PTHR1 in which yellow fluorescent protein (YFP) replaces the entire extracellular domain (PTHR1YFPΔECD, FIG. 12—Panel e)^21, was also used.
# [5] = system: PTHR1GFP; experiment: Flow cytometry staining by VHH-Alexafluor647 of HEK293 cells expressing PTHR1GFP; assay type: binding, human; details: 100 nM VHH
# Experimental: FIGS. 17A-17C: Use of PTHR1-GFP. (FIG. 17A) Hypothetical structure of PTHR1 with GFP engrafted into exon 2 bound to a GFP binding nanobody. (FIG. 17B) Flow cytometry analysis of cells stably expressing PTHR1-GFP. HEK293 cell lines in suspension were incubated on ice with 100 nM VHH sortagged with Alexafluor647, pelleted by centrifugation, washed and analyzed. […] This weak staining is likely related to the inability of VHHGFP to tightly bind the pH-sensitive GFP variant known as pHluorin2 engrafted into the receptor (ref. 19, main text). (FIG. 17C) HEK293 cells stably expressing PTHR1-GFP were treated with varied doses of the indicated peptides or conjugates and activation was assessed by measuring luminescence from a cAMP-activated luciferase variant. Values listed represent EC50 values (mean±SD). Each value comes from ≥3 independent experiments. Further details, including the number of replicates for each measurement and the normalized maximal responses induced, are reported in Table 5.
# Flow cytometry. Suspensions of cells in PBS were stained for 1 hour on ice in the presence of indicated concentrations of VHH probes functionalized with Alexafluor647. Cells were pelleted by centrifugation and washed with PBS prior to analysis by flow cytometry (BD Accuri C6). Gating was performed on forward scatter/side scatter profiles to analyze intact cells. Data was analyzed using FlowJo version 7.6. […]
# [6] = system: PTHR1YFPΔECD; experiment: Flow cytometry staining by VHH-Alexafluor647 of HEK293 cells expressing PTHR1YFPΔECD; assay type: binding, human
# Experimental: (§3) Flow cytometry. Suspensions of cells in PBS were stained for 1 hour on ice in the presence of indicated concentrations of VHH probes functionalized with Alexafluor647. Cells were pelleted by centrifugation and washed with PBS prior to analysis by flow cytometry (BD Accuri C6). Gating was performed on forward scatter/side scatter profiles to analyze intact cells. Data was analyzed using FlowJo version 7.6. The median fluorescent intensity (MFI) of stained cells was used to generate VHH binding dose response curves (FIG. 20).
# [7] = molecular target: T4, PTHR2; experiment: Flow cytometry staining by VHH-Alexafluor647 of HEK293 cells expressing PTHR2; assay type: binding; details: 100 nM VHH; listed as VHH22A3
# Experimental: as §3
# [8] = system: PTHR1; experiment: Flow cytometry staining by VHH-Alexafluor647 of HEK293 cells expressing PTHR1 constructs that retain the ECD; assay type: binding, human; details: 100 nM VHH
# Experimental: as §3
# [9] = molecular target: T1, rat PTHR1; experiment: Flow cytometry staining by VHH-Alexafluor647 of HEK293 cells expressing rat PTHR1; assay type: binding; details: 100 nM VHH
# Experimental: as §3
molecule,measurement,setting,value
CC[C@H](C)[C@H](NC(=O)[C@H](CCC(=O)O)NC(=O)C(C)(C)NC(=O)[C@@H](NC(=O)[C@H](C)N)C(C)C)C(=O)N[C@@H](CCC(N)=O)C(=O)N[C@@H](CC(C)C)C(=O)N[C@@H](CCSC)C(=O)N[C@@H](Cc1c[nH]cn1)C(=O)N[C@@H](CCC(N)=O)C(=O)N[C@@H](CCCNC(=N)N)C(=O)N[C@@H](CS)C(N)=O [PTH(1-11)] (H-AV[Aib]EIQLMHQRC-NH2),EC50,[1],0.12 ± 0.0903 µM
same,"response at 100 uM, hPTHR2",[2],20%
same,EC50,[3],0.516 ± 0.238 µM
same,EC50,[4],0.094 ± 0.074 µM
"VHHGFP: nanobody that binds GFP and YFP, SEQ ID NO: 73",staining of PTHR1GFP cells (in words),[5],only weakly stained
same,staining of PTHR1YFPΔECD cells (in words),[6]; 100 nM VHH,stained
same,EC50,"[6]; flow cytometry, on ice, read-out: half-maximal staining concentration, PTHR1YFP-del-NT cells",< 0.01 µM
B1,binding to PTHR2 (in words),[7],lack of binding
same,binding to PTHR1 constructs retaining the ECD (in words),[8],bound all constructs that retained the PTHR1 ECD; also recorded: binds to PTHR1
same,binding to rat PTHR1 (in words),[9],bound
